Several values for one entry are separate records, joined by “and”; a condition that tells them apart may be missing. Identical values can stand only once. Toxic doses and inconclusive results are not listed.

In the experiment the test system is BDF1 mice, P388 leukemia ip, median survival T/C. The experiment is described as follows: NCI In Vivo Anticancer Drug Screen. Data for tumor model P388 Leukemia (intraperitoneal) in B6D2F1 (BDF1) mice. The note with it: endpoint: median survival time, higher = longer survival. In a few lines:
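T/C = treated-group survival ÷ vehicle-control survival; tumour transplanted into mice before dosing.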

The mark [1] stands for this setting: dose: 100.0 mg/kg/injection, schedule: Q01DX001 (ip), vehicle: Klucel (hydroxypropylcellulose) (HPC).
Where [2] appears, read: dose: 200.0 mg/kg/injection, schedule: Q01DX001 (ip), vehicle: Klucel (hydroxypropylcellulose) (HPC).
Setting [3] is: dose: 12.5 mg/kg/injection, schedule: Q01DX009 (ip), vehicle: saline.
[4] abbreviates: dose: 50.0 mg/kg/injection, schedule: Q01DX009 (ip), vehicle: saline.
The mark [5] stands for this setting: dose: 100.0 mg/kg/injection, schedule: Q04DX003 (ip), vehicle: saline.
[6] abbreviates: dose: 200.0 mg/kg/injection, schedule: Q04DX003 (ip), vehicle: saline.
The mark [7] stands for this setting: dose: 100.0 mg/kg/injection, schedule: Q04DX003 (ip), vehicle: saline with Tween-80.
Setting [8] is: dose: 200.0 mg/kg/injection, schedule: Q04DX003 (ip), vehicle: saline with Tween-80.
Where [9] appears, read: dose: 400.0 mg/kg/injection, schedule: Q04DX003 (ip), vehicle: saline with Tween-80.
Where [10] appears, read: dose: 50.0 mg/kg/injection, schedule: Q01DX009 (ip), vehicle: saline with Tween-80.
Where [11] appears, read: dose: 100.0 mg/kg/injection, schedule: Q01DX009 (ip), vehicle: saline with Tween-80.
[12] abbreviates: dose: 200.0 mg/kg/injection, schedule: Q01DX009 (ip), vehicle: saline with Tween-80.
Where [13] appears, read: dose: 50.0 mg/kg/injection, schedule: Q04DX003 (ip), vehicle: saline.
[14] abbreviates: dose: 400.0 mg/kg/injection, schedule: Q01DX001 (ip), vehicle: Klucel (hydroxypropylcellulose) (HPC).

Regarding `O=CNc1c(Cl)c(Cl)c2c(c1Cl)Cc1cc(Cl)ccc1-2`, the T/C reads like this: (dose: 0.18 mg/kg/injection, schedule: Q01DX009 (ip), vehicle: DMSO) 91 % of control; (dose: 0.37 mg/kg/injection, schedule: Q01DX009 (ip), vehicle: DMSO) 95 % of control; (dose: 0.75 mg/kg/injection, schedule: Q01DX009 (ip), vehicle: DMSO) 100 % of control; (dose: 3.0 mg/kg/injection, schedule: Q01DX009 (ip), vehicle: DMSO) 89 % of control; (dose: 12.5 mg/kg/injection, schedule: Q01DX009 (ip), vehicle: DMSO) 96 % of control; (dose: 50.0 mg/kg/injection, schedule: Q01DX001 (ip), vehicle: Klucel (hydroxypropylcellulose) (HPC)) 90 % of control. In addition, the T/C under setting [1] was 90 % of control; the T/C (dose: 100.0 mg/kg/injection, schedule: Q01DX009 (ip), vehicle: Klucel (hydroxypropylcellulose) (HPC)) was 116 % of control; the T/C (dose: 100.0 mg/kg/injection, schedule: Q04DX003 (ip), vehicle: Klucel (hydroxypropylcellulose) (HPC)) was 90 % of control and 100 % of control; the T/C under setting [2] is 86 % of control; the T/C (dose: 200.0 mg/kg/injection, schedule: Q01DX009 (ip), vehicle: Klucel (hydroxypropylcellulose) (HPC)) is 116 % of control; the T/C (dose: 200.0 mg/kg/injection, schedule: Q04DX003 (ip), vehicle: Klucel (hydroxypropylcellulose) (HPC)) was 90 % of control and 91 % of control. In addition, the T/C is 105 % of control (dose: 400.0 mg/kg/injection, schedule: Q01DX009 (ip), vehicle: Klucel (hydroxypropylcellulose) (HPC)); 86 % of control and 87 % of control (dose: 400.0 mg/kg/injection, schedule: Q04DX003 (ip), vehicle: Klucel (hydroxypropylcellulose) (HPC)).

As to `CS(=O)(=O)c1ncc2cnccn12`, the T/C (dose: 100.0 mg/kg/injection, schedule: Q04DX003 (ip), vehicle: water) is 110 % of control.

Take `COc1ccc2c(c1)/C(=C/CCN(C)C)c1ccccc1S2`: the T/C by setting is: under setting [3], 109 % of control; (dose: 16.5 mg/kg/injection, schedule: Q01DX009 (ip), vehicle: saline) 118 % of control; (dose: 37.5 mg/kg/injection, schedule: Q01DX009 (ip), vehicle: saline) 95 % of control; under setting [4], 118 % of control.

Regarding `O=[P+](O)C(O)c1ccccc1` (centres undefined), the T/C was 100 % of control under setting [5]; 108 % of control under setting [6]; 91 % of control (dose: 400.0 mg/kg/injection, schedule: Q04DX003 (ip), vehicle: saline).

Regarding `CCCCCCCCCCCC[Si](CCCCCCCCCCCC)(c1ccccc1)c1ccccc1`, the T/C (dose: 100.0 mg/kg/injection, schedule: Q01DX009 (ip), vehicle: other) was 95 % of control; the T/C under setting [7] was 100 % of control; the T/C (dose: 200.0 mg/kg/injection, schedule: Q01DX009 (ip), vehicle: other) was 114 % of control; the T/C under setting [8] is 100 % of control; the T/C (dose: 400.0 mg/kg/injection, schedule: Q01DX009 (ip), vehicle: other) is 109 % of control; the T/C under setting [9] is 100 % of control.

With `CC(NSc1ccccc1[N+](=O)[O-])C(=O)O` (centres undefined), the T/C is, setting by setting: under setting [10], 98 % of control; under setting [11], 113 % of control.

Take `CCOC(=O)C12CC=CC(CCC1)/C2=N\Nc1ccccc1` (centres undefined): the T/C is 90 % of control under setting [11]; 90 % of control under setting [12]; 117 % of control (dose: 400.0 mg/kg/injection, schedule: Q01DX009 (ip), vehicle: saline with Tween-80).

As for `O=C(Oc1ccc([N+](=O)[O-])cc1)c1ccc(C[n+]2ccccc2)cc1`, the T/C runs as follows: under setting [10], 91 % of control; under setting [4], 89 % of control; under setting [13], 91 % of control; under setting [11], 109 % of control; (dose: 100.0 mg/kg/injection, schedule: Q01DX009 (ip), vehicle: saline) 89 % of control; under setting [5], 104 % of control and 108 % of control. Besides, the T/C is 116 % of control under setting [12]; 96 % of control (dose: 200.0 mg/kg/injection, schedule: Q01DX009 (ip), vehicle: saline); 90 % of control and 100 % of control under setting [6].

Turning to `CCOC(=O)NC12c3ccccc3C(c3ccccc31)C(C(=O)O)C2C(=O)O` (centres undefined), the T/C by setting is: under setting [7], 118 % of control; under setting [8], 118 % of control; under setting [9], 118 % of control.

In the case of `O=C(O)c1ccc(C(=O)O)c(C(=O)O)c1.[NH-]C1CCCCC1[NH-].[Pt+2]`, the T/C was 164 % of control (dose: 30.0 mg/kg/injection, schedule: Q01DX001 (ip), vehicle: sodium bicarbonate) and 162 % of control (dose: 50.0 mg/kg/injection, schedule: Q01DX001 (ip), vehicle: sodium bicarbonate).

Consider `COC(=O)c1ccc(OCCOc2ccc(C(C)(C)CC(C)(C)C)cc2)c(N)c1`, for which the T/C by setting is: under setting [1], 95 % of control; under setting [2], 104 % of control; under setting [14], 100 % of control.

As for `Clc1ccc2c(c1)Nc1cc(Cl)ccc1C=C2`, the T/C by setting is: (dose: 75.0 mg/kg/injection, schedule: Q01DX001 (ip), vehicle: saline with Tween-80) 91 % of control; (dose: 150.0 mg/kg/injection, schedule: Q01DX001 (ip), vehicle: saline with Tween-80) 100 % of control; (dose: 300.0 mg/kg/injection, schedule: Q01DX001 (ip), vehicle: saline with Tween-80) 100 % of control.

As for `CCC(CN(C)C)C(=O)c1ccccc1` (centres undefined), the T/C was 100 % of control (dose: 25.0 mg/kg/injection, schedule: Q04DX003 (ip), vehicle: saline with Tween-80); 95 % of control (dose: 50.0 mg/kg/injection, schedule: Q04DX003 (ip), vehicle: saline with Tween-80); 100 % of control (dose: 100.0 mg/kg/injection, schedule: Q01DX001 (ip), vehicle: saline with Tween-80); 91 % of control and 95 % of control under setting [7]; 100 % of control (dose: 200.0 mg/kg/injection, schedule: Q01DX001 (ip), vehicle: saline with Tween-80).

Turning to `F`, the T/C runs as follows: (dose: 0.25 mg/kg/injection, schedule: Q01DX009 (ip), vehicle: water) 113 % of control; (dose: 0.5 mg/kg/injection, schedule: Q01DX009 (ip), vehicle: water) 95 % of control; (dose: 0.62 mg/kg/injection, schedule: Q01DX009 (ip), vehicle: water) 86 % of control; (dose: 1.25 mg/kg/injection, schedule: Q01DX009 (ip), vehicle: water) 100 % of control; (dose: 2.5 mg/kg/injection, schedule: Q01DX009 (ip), vehicle: water) 95 % of control; (dose: 5.0 mg/kg/injection, schedule: Q01DX009 (ip), vehicle: water) 100 % of control. In addition, the T/C runs as follows: (dose: 6.25 mg/kg/injection, schedule: Q01DX009 (ip), vehicle: water) 100 % of control; (dose: 6.25 mg/kg/injection, schedule: Q04DX003 (ip), vehicle: saline) 100 % of control; under setting [3], 100 % of control; (dose: 12.5 mg/kg/injection, schedule: Q01DX009 (ip), vehicle: water) 100 % of control; (dose: 12.5 mg/kg/injection, schedule: Q04DX003 (ip), vehicle: saline) 100 % of control; (dose: 25.0 mg/kg/injection, schedule: Q01DX009 (ip), vehicle: saline) 100 % of control. Further, the T/C runs as follows: (dose: 25.0 mg/kg/injection, schedule: Q01DX009 (ip), vehicle: water) 95 % of control; (dose: 25.0 mg/kg/injection, schedule: Q04DX003 (ip), vehicle: saline) 100 % of control; (dose: 33.0 mg/kg/injection, schedule: Q04DX003 (ip), vehicle: saline) 104 % of control; under setting [13], 95 % of control.

Regarding `CCN1C(=O)CN=C(c2ccccn2)c2cc(Cl)ccc21`, the T/C runs as follows: under setting [1], 90 % of control; under setting [2], 104 % of control; under setting [14], 95 % of control.

As for `CC(C)CNC(=S)N/N=C\C=N/NC(=S)NCC(C)C`, the T/C runs as follows: (dose: 75.0 mg/kg/injection, schedule: Q01DX009 (ip), vehicle: saline with Tween-80) 98 % of control; (dose: 150.0 mg/kg/injection, schedule: Q01DX009 (ip), vehicle: saline with Tween-80) 91 % of control.
